Source: patent publication US6489537B1 (priority 1998, dated 2002)
Where “and” joins values, the source holds several entries; their conditions need not be identical. Equal entries are not always repeated. Where two headings read alike, the source gives them in different places.

Columns and labels:
[1] = system: S. cerevisiae ycf1Δ mutant strain DTY167; format: cell-based; settings: for IC50: read-out: concentration required for 50% attenuation of cell density
[2] = system: S. cerevisiae cells expressing an Arabidopsis metallothionein; assay: Growth in presence of Cd2+ after BSO preincubation, metallothionein cells; format: cell-based; settings: 6 hour preincubation, 60 μM Cd2+, OD 18 hours after Cd2+
Procedure: FIG. 13A is a graph depicting phytochelatin synthesis in cells expressing PCS. The growth of S. cerevisiae cells expressing either TaPCS1 (circles) or an Arabidopsis metallothionein (squares) in the presence of Cd^2+ (200 μM for TAPCS1 and 60 μM for metallothionein) following a 6 hour preincubation using different concentrations of BSO (L-Buthionine-sulfoxime), a glutathione synthesis inhibitor. The OD was measured 18 hours after the addition of Cd^2+.

[3] = system: S. cerevisiae cells expressing TaPCS1; settings: 6 hour preincubation, 200 μM Cd2+, OD 18 hours after Cd2+
[4] = system: TaPCS1 message; assay: Competitive PCR of TaPCS1 expression in wheat roots; format: in vivo; settings: wheat roots treated with 100 μM Cd2+ for 6 hours versus untreated
[5] = system: S. cerevisiae INVSc1 cells; assay: Cd2+ dose-response growth of TaPCS1-expressing and control yeast cells; format: cell-based; settings: YNB 1% sucrose/1% galactose, OD600 after 24 hours, read-out: K0.5 for growth
[6] = Equilibrium dialysis of purified AtPCS1-FLAG against 109CdCl2; format: binding; settings: immunoaffinity-purified protein
Procedure: The binding of Cd^2+ was determined by equilibrium dialysis of a 400-800 μl (160 μg) sample of purified AtPCS1-FLAG against 80 ml volumes of 10 mM Tris-HCl buffer, pH 7.8, containing 0.05 to 20 μM ^109CdCl2 (specific activity 22 Ci/mol, Amersham Pharmacia Biotech, Piscataway, N.J.) for 12 hours at 4° C. in 2 ml mini-collodion membrane tubes (molecular weight cut-off of 25,000; Schleicher and Schuell, Inc., Keene, N.H.). Protein-bound ^109Cd was estimated by measuring the radioactivity of the bulk medium outside the dialysis tube and that of the solution within the dialysis tube and determining the increase in ^109Cd radioactivity consequent on AtPCS1-FLAG. Binding constants and stoichiometries of binding were estimated by nonlinear least squares analysis (Marquardt, 1963, J. Soc. Ind. Appl. Math. 11:431-441) using the Ultrafit nonlinear curve fitting package from BioSoft (Ferguson, Mo.).

[7] = PC synthase activity assay (incorporation of GSH into PC2 and PC3); format: biochemical; settings: for aggregate rate of incorporation of GSH into PC2 and PC3: purified protein
Procedure: PC synthase activity was assayed according to Grill et al. (1989, Proc. Natl. Acad. Sci. U.S.A. 86:6838-6842) in reaction media containing crude soluble fraction (50 μg protein), purified AtPCS1-FLAG (0.5 μg) or no protein, 3.3 mM GSH, 10 mM 2-mercaptoethanol and 200 mM Tris-HCl buffer (pH 8.0) plus or minus 200 μM CdCl2 at 37° C. for 40 minutes. After terminating the reactions with 5% (w/v) 5-sulfosalicylic acid, PCs were estimated in the supernatant by reverse-phase FPLC and reaction with DTNB.

[8] = system: S. cerevisiae; assay: Growth of PCS-expressing yeast on YNB medium with 100 μM Cd2+; format: cell-based
[9] = system: S. cerevisiae cells; assay: Cd2+ accumulation using 109Cd2+; format: cell-based; settings: versus empty pYES2 cells; 24 hour culture, non-inhibitory Cd2+ concentrations, n=3
Procedure: FIG. 10 is a graph depicting the greater accumulation of Cd^2+ by cells expressing TaPCS1 compared to the Cd^2+ accumulation by control cells. Yeast cells carrying the empty pYES2 plasmid (white bars) and TaPCS1-expressing cells (black bars) were grown in arginine-phosphate medium containing different non-inhibitory Cd^2+ concentrations. After 24 hours, the cells were harvested and washed and the amount of Cd^2+ accumulated inside the cells was determined using ^109 Cd^2+ (Error bars=S.E., n=3).
S. cerevisiae cells were grown in arginine-phosphate medium for 24 hours in the presence of various amounts of CdCl2 containing 0.5 μCi ^109Cd^2+. The cells were harvested and washed. The radioactivity was determined as described previously (Clemens et al., 1998, Proc. Natl. Acad. Sci. U.S.A. 95:12043-12048).

Which results are given for `O=[As]O` [AsO2^−]?
fold increase in concentration exerting 50% inhibition of growth in liquid culture [1]: 1.6 fold; IC50 [1]: 200 µM and 325 µM

For `CCCCS(=N)(=O)CCC(N)C(=O)O` [BSO, L-Buthionine-sulfoxime], which “effect on metallothionein-dependent Cd2+ tolerance” value [2] is on record?
The value was “no effect”.

What about the “effect on TaPCS1-mediated Cd2+ tolerance” value [3] of the same molecule?
The value was “reduced the TaPCS1-mediated Cd^2+ tolerance in a dose-dependent manner”.

For `[Cl][Cd][Cl]` [Cd^2+, CdCl2], which “fold increase in concentration exerting 50% inhibition of growth in liquid culture” value [1] is on record?
The value was 24 fold.

What about the “fold higher concentration of TaPCS1 message” value [4] of the same molecule?
The value was 5-10 fold.

And the IC50 ([5]; TaPCS1-expressing cells)?
The IC50 was 90 µM.

And the IC50 ([5]; control cells with empty pYES2)?
The IC50 was 6 µM.

For `[Cu+2]` [Cu^2+], which “fold increase in concentration exerting 50% inhibition of growth in liquid culture” value [1] is on record?
The value was 2.4 fold.

With `[Hg+2]` [Hg^2+] as the molecule, how does the “fold increase in concentration exerting 50% inhibition of growth in liquid culture” value [1] read?
The value was 1.6 fold.

And the IC50 [1]?
The IC50 was 4 µM and 6.3 µM.

B1: AtPCS1-FLAG (protein, UniProt Q9S7Z3 1-485, looked up)
Glutathione …: MAMASLYRRSLPSPPAIDFSSAEGKLIFNEALQKGTMEGFFRLISYFQTQSEPAYCGLASLSVVLNALSIDPGRKWKGPWRWFDESMLDCCEPLEVVKEKGISFGKVVCLAHCSGAKVEAFRTSQSTIDDFRKFVVKCTSSENCHMISTYHRGVFKQTGTGHFSPIGGYNAERDMALILDVARFKYPPHWVPLKLLWEAMDSIDQSTGKRRGFMLISRPHREPGLLYTLSCKDESWIEIAKYLKEDVPRLVSSQHVDSVEKIISVVFKSLPSNFNQFIRWVAEIRITEDSNQNLSAEEKSRLKLKQLVLKEVHETELFKHINKFLSTVGYEDSLTYAAAKACCQGAEILSGSPSKEFCCRETCVKCIKGPDDSEGTVVTGVVVRDGNEQKVDLLVPSTQTECECGPEATYPAGNDVFTALLLALPPQTWSGIKDQALMHEMKQLISMASLPTLLQEEVLHLRRQLQLLKRCQENKEEDDLAAPAY
modifications: FLAG tag
What does the source list for B1?
stoichiometric ratio of Cd2+ binding (cadmium per AtPCS1) [6]: 7.09±0.94; aggregate rate of incorporation of GSH into PC2 and PC3 ([7]; absence of Cd2+): < 0.01 nmol/mg/min; aggregate rate of incorporation of GSH into PC2 and PC3 ([7]; presence of Cd2+ (200 μM CdCl2), 3.3 mM GSH, 37° C.): 30000 to 35000 nmol/mg/min; catalytic activity exceeding that of previous preparations from plants ([7]; versus Grill et al., 1989): more than 10^3 fold

B2: AtPCS1: Arabidopsis thaliana phytochelatin synthase, 55 kDa, SEQ ID NO: 2 (protein, UniProt Q9S7Z3 1-485, looked up)
Glutathione …: MAMASLYRRSLPSPPAIDFSSAEGKLIFNEALQKGTMEGFFRLISYFQTQSEPAYCGLASLSVVLNALSIDPGRKWKGPWRWFDESMLDCCEPLEVVKEKGISFGKVVCLAHCSGAKVEAFRTSQSTIDDFRKFVVKCTSSENCHMISTYHRGVFKQTGTGHFSPIGGYNAERDMALILDVARFKYPPHWVPLKLLWEAMDSIDQSTGKRRGFMLISRPHREPGLLYTLSCKDESWIEIAKYLKEDVPRLVSSQHVDSVEKIISVVFKSLPSNFNQFIRWVAEIRITEDSNQNLSAEEKSRLKLKQLVLKEVHETELFKHINKFLSTVGYEDSLTYAAAKACCQGAEILSGSPSKEFCCRETCVKCIKGPDDSEGTVVTGVVVRDGNEQKVDLLVPSTQTECECGPEATYPAGNDVFTALLLALPPQTWSGIKDQALMHEMKQLISMASLPTLLQEEVLHLRRQLQLLKRCQENKEEDDLAAPAY
For B2, which “stoichiometric ratio of Cd2+ binding (cadmium per AtPCS1)” value [6] is on record?
The value was “approximately 6”.

And the “Cd2+ tolerance conferred when expressed in S. cerevisiae” value [8]?
Its value is “strong Cd^2+ tolerance”.

B3: TaPCS1: wheat (Triticum aestivum) phytochelatin synthase, SEQ ID NO: 6 (protein, UniProt Q9SWW5 1-500, looked up)
Glutathione …: MEVASLYRRVLPSPPAVEFASAEGKRLFAEALQGGTMEGFFNLISYFQTQSEPAFCGLASLSVVLNALAIDPGRPWKGPWRWFDESMLDCCEPLHKVKAEGITFGKVVCLAHCAGARVQSFRADQTTIHDFRAHLTRCASSQDCHLISSYHRSPFKQTGTGHFSPIGGYHAEKDMALILDVARFKYPPHWVPLTLLWDAMNTTDEATGLLRGFMLVSRRSSAPSLLYTVSCGHGSWKSMAKYCVEDVPNLLKDESLDNVTTLLSRLVESLPANAGDLIKCVIEVRRKEEGESSLSKEEKERLFLKEKVLQQIRDTDLFRVVHELQYPKGLCGSCSSSSDEDSLAEIAATVCCQGAAFLSGNLVSRDGFCCRETCIKCIEANGDGLKTVISGTVVSKGNEQAVDLLLPTSSSKTSLCNSNLKSKIVKYPSSTDVLTVLLLVLQPNTWLGIKDENVKAEFQSLVSTDNLPDLLKQEILHLRRQLHYLAGCKGQEACQEPPSP
For B3, which “increase in Cd2+ accumulation” value [9] is on record?
The value was 30-50%.
